# Data: US10828315B2 (Madrigal Pharmaceuticals, Inc., priority 2013, dated 2020)
# Where two headings read alike, the source gives them in different places.
# Columns and labels:
# [1] = Mouse plasma stability protocol, up to 1 h (Examples 16-18); details: for % Remaining (1 h): % Remaining of parent after 1 h incubation in mouse plasma at 37° C. (10 μM); for % Remaining (1 h, 37° C.): mouse plasma
# [2] = female, SCID, mouse, in vivo
# [3] = Metabolite profiling and identification; format: in vitro ADME; design: key: —: Not detected; details: for Metabolite N-dealkylation + glucuronidation: M+1 527.3; for Metabolite Sulfation: M+1 542.3; for Metabolite Hydrolysis (SN-38): M+1 393.3; for Metabolite Hydrolysis (SDC-TRAP-0062): M+1 462.3; for Metabolite Hydrolysis (SN-38) + glucuronidation: M+1 569.3; for Metabolite Hydrolysis (SDC-TRAP-0062) + glucuronidation: M+1 638.3; for Metabolite Hydrolysis (SDC-TRAP-0063): M+1 880.3; for Metabolite Hydrolysis (SDC-TRAP-0063) + glucuronidation: M+1 1056.4; for Metabolite Glucuronidation: M+1 1136.4
# Excerpt: Metabolite Profiling and Identification: Metabolite profiling/identification for SDC-TRAP-0063 (M+1:880.3)
compound,measurement,setting,value
CCc1c2c(nc3ccc(O)cc13)-c1cc3c(c(=O)n1C2)COC(=O)C3(CC)OC(=O)N1CCN(C(=O)C2CCN(c3ccc(-n4c(O)nnc4-c4cc(C(C)C)c(O)cc4O)cc3)CC2)CC1 (stereo not drawn),% Remaining (1 h),[1],108%
CC(C)c1cc(-c2nnc(O)n2-c2ccc3c(ccn3CCC3CCNCC3)c2)c(O)cc1O [DP-1],Tumor Conc.,[2]; 24 h,0.404 nmol/g of tissue
same,Tumor Conc.,[2]; 48 h,1.06 nmol/g of tissue
same,Tumor Conc.,[2]; […],0.00758 nmol/g of tissue
CC(C)c1cc(-c2nnc(O)n2-c2ccc3c(ccn3CCC3CCNCC3)c2)c(O)cc1O [SDC-TRAP-0062],Metabolite N-dealkylation + glucuronidation,[3]; Hepatocytes Dog,√
same,Metabolite N-dealkylation + glucuronidation,[3]; Hepatocytes Human,√
same,Metabolite N-dealkylation + glucuronidation,[3]; Hepatocytes Monkey,—
same,Metabolite N-dealkylation + glucuronidation,[3]; Hepatocytes Mouse,√
same,Metabolite Sulfation,[3]; Hepatocytes Mouse,—
same,Metabolite N-dealkylation + glucuronidation,[3]; Hepatocytes Rat,—
same,Metabolite Sulfation,[3]; Hepatocytes Rat,√
"CCNC(=O)c1nnc(-c2cc(C(C)C)c(O)cc2O)n1-c1ccc(CN2CCC(C(=O)N3CCC(C(=O)OC4(CC)C(=O)OCc5c4cc4n(c5=O)Cc5c-4nc4ccc(O)cc4c5CC)CC3)CC2)cc1 (stereo not drawn) [SDC-TRAP-0076, 4,11-diethyl-9-hydroxy-3,14-dioxo-3,4,12,14-tetrahydro-1H-pyrano[3′,4′:6,7]indolizino[1,2-b]quinolin-4-yl 1-(1-(4-(3-(2,4-dihydroxy-5-isopropylphenyl)-5-(ethylcarbamoyl)-4H-1,2,4-triazol-4-yl)benzyl)piperidine-4-carbonyl)piperidine-4-carboxylate]",% Remaining (1 h),[1],96.0%
same,"% Remaining (1 h, 37° C.)",[1],96%
"CCc1c2c(nc3ccc(O)cc13)-c1cc3c(c(=O)n1C2)COC(=O)[C@@]3(CC)OC(=O)CN1CCC(CCc2ccc(-n3c(O)nnc3-c3cc(C(C)C)c(O)cc3O)cc2)CC1 [SDC-TRAP-0106, (S)-4,11-diethyl-9-hydroxy-3,14-dioxo-3,4,12,14-tetrahydro-1H-pyrano[3′,4′:6,7]indolizino[1,2-b]quinolin-4-yl 2-(4-(4-(3-(2,4-dihydroxy-5-isopropylphenyl)-5-hydroxy-4H-1,2,4-triazol-4-yl)phenethyl)piperidin-1-yl)acetate]",% Remaining (1 h),[1],114%
"CCc1c2c(nc3ccc(O)cc13)-c1cc3c(c(=O)n1C2)COC(=O)[C@@]3(CC)OC(=O)CN1CCC(CCn2ccc3cc(-n4c(O)nnc4-c4cc(C(C)C)c(O)cc4O)ccc32)CC1 [SDC-TRAP-0107, (S)-4,11-diethyl-9-hydroxy-3,14-dioxo-3,4,12,14-tetrahydro-1H-pyrano[3′,4′:6,7]indolizino[1,2-b]quinolin-4-yl 2-(4-(2-(5-(3-(2,4-dihydroxy-5-isopropylphenyl)-5-hydroxy-4H-1,2,4-triazol-4-yl)-1H-indol-1-yl)ethyl)piperidin-1-yl)acetate]",% Remaining (1 h),[1],111%
"CCNC(=O)c1nnc(-c2cc(C(C)C)c(O)cc2O)n1-c1ccc(OC2CCN(C(=O)C3CCCCN3C(=O)Oc3ccc4nc5c(c(CC)c4c3)Cn3c-5cc4c(c3=O)COC(=O)[C@]4(O)CC)CC2)cc1 (stereo partly drawn) [SDC-TRAP-0216, (S)-4,11-diethyl-4-hydroxy-3,14-dioxo-3,4,12,14-tetrahydro-1H-pyrano[3′,4′:6,7]indolizino[1,2-b]quinolin-9-yl 2-(4-(4-(3-(2,4-dihydroxy-5-isopropylphenyl)-5-(ethylcarbamoyl)-4H-1,2,4-triazol-4-yl)phenoxy)piperidine-1-carbonyl)piperidine-1-carboxylate]","% Remaining (1 h, 37° C.)",[1],67.7%
"CCNC(=O)c1noc(-c2cc(C(C)C)c(O)cc2O)c1-c1ccc(CN2CCN(C(=O)Oc3ccc4nc5c(c(CC)c4c3)Cn3c-5cc4c(c3=O)COC(=O)C4(O)CC)CC2)cc1 (stereo not drawn) [SDC-TRAP-0236, 4,11-diethyl-4-hydroxy-3,14-dioxo-3,4,12,14-tetrahydro-1H-pyrano[3′,4′:6,7]indolizino[1,2-b]quinolin-9-yl 4-(4-(5-(2,4-dihydroxy-5-isopropylphenyl)-3-(ethylcarbamoyl)isoxazol-4-yl)benzyl)piperazine-1-carboxylate]",% Remaining (1 h),[1],60.8%
"CCc1c2c(nc3ccc(OC(=O)N4CCC(S(=O)(=O)N5CCC(CCn6ccc7cc(-n8c(O)nnc8-c8cc(C(C)C)c(O)cc8O)ccc76)CC5)CC4)cc13)-c1cc3c(c(=O)n1C2)COC(=O)[C@]3(O)CC [SDC-TRAP-0336, (S)-4,11-diethyl-4-hydroxy-3,14-dioxo-3,4,12,14-tetrahydro-1H-pyrano[3′,4′:6,7]indolizino[1,2-b]quinolin-9-yl 4-((4-(2-(5-(3-(2,4-dihydroxy-5-isopropylphenyl)-5-hydroxy-4H-1,2,4-triazol-4-yl)-1H-indol-1-yl)ethyl)piperidin-1-yl)sulfonyl)piperidine-1-carboxylate]",% Remaining (1 h),[1],31.7%
"CCc1c2c(nc3ccc(OC(=O)N(C)CC(=O)N4CCC(CCn5ccc6cc(-n7c(O)nnc7-c7cc(C(C)C)c(O)cc7O)ccc65)CC4)cc13)-c1cc3c(c(=O)n1C2)COC(=O)[C@]3(O)CC [SDC-TRAP-0337, (S)-4,11-diethyl-4-hydroxy-3,14-dioxo-3,4,12,14-tetrahydro-1H-pyrano[3′,4′: 6,7]indolizino[1,2-b]quinolin-9-yl (2-(4-(2-(5-(3-(2,4-dihydroxy-5-isopropylphenyl)-5-hydroxy-4H-1,2,4-triazol-4-yl)-1H-indol-1-yl)ethyl)piperidin-1-yl)-2-oxoethyl)(methyl)carbamate]",% Remaining (1 h),[1],77.3%
"CCc1c2c(nc3ccc(OC(=O)N4CCC(N5CCC(CCn6ccc7ccc(-n8c(O)nnc8-c8cc(C(C)C)c(O)cc8O)cc76)CC5)CC4)cc13)-c1cc3c(c(=O)n1C2)COC(=O)C3(O)CC (stereo not drawn) [SDC-TRAP-0353, 4,11-diethyl-4-hydroxy-3,14-dioxo-3,4,12,14-tetrahydro-1H-pyrano[3′,4′:6,7]indolizino[1,2-b]quinolin-9-yl 4-(2-(6-(3-(2,4-dihydroxy-5-isopropylphenyl)-5-hydroxy-4H-1,2,4-triazol-4-yl)-1H-indol-1-yl)ethyl)-[1,4′-bipiperidine]-1′-carboxylate]",% Remaining (1 h),[1],22.5%
"CCc1c2c(nc3ccc(O)cc13)-c1cc3c(c(=O)n1C2)COC(=O)C3(CC)OC(=O)N(C)Cc1ccc(OC(=O)N2CCN(Cc3ccc(-n4c(O)nnc4-c4cc(C(C)C)c(O)cc4O)cc3)CC2)cc1 (stereo not drawn) [SDC-TRAP-0356, 4-(((((4,11-diethyl-9-hydroxy-3,14-dioxo-3,4,12,14-tetrahydro-1H-pyrano[3′,4′:6,7]indolizino[1,2-b]quinolin-4-yl)oxy)carbonyl)(methyl)amino)methyl)phenyl 4-(4-(3-(2,4-dihydroxy-5-isopropylphenyl)-5-hydroxy-4H-1,2,4-triazol-4-yl)benzyl)piperazine-1-carboxylate]",% Remaining (1 h),[1],70.9%
CCc1c2c(nc3ccc(OC(=O)N4CCC(N(C)CCNC(=O)c5nnc(-c6cc(C(C)C)c(O)cc6O)n5-c5cccnc5)CC4)cc13)-c1cc3c(c(=O)n1C2)COC(=O)C3(O)CC (stereo not drawn) [SDC-TRAP-0358],% Remaining (1 h),[1],41.0%
"CCc1c2c(nc3ccc(OC(=O)N4CCC(CCn5ccc6cc(-n7c(O)nnc7-c7cc(C(C)C)c(O)cc7O)ccc65)CC4)cc13)-c1cc3c(c(=O)n1C2)COC(=O)C3(CC)OP(=O)(O)O (stereo not drawn) [SDC-TRAP-0397, 4,11-diethyl-3,14-dioxo-4-(phosphonooxy)-3,4,12,14-tetrahydro-1H-pyrano[3′,4′: 6,7]indolizino[1,2-b]quinolin-9-yl 4-(2-(5-(3-(2,4-dihydroxy-5-isopropylphenyl)-5-hydroxy-4H-1,2,4-triazol-4-yl)-1H-indol-1-yl)ethyl)piperidine-1-carboxylate]",Metabolite Hydrolysis (SN-38),[3]; Hepatocytes Dog,√
same,Metabolite Hydrolysis (SDC-TRAP-0062),[3]; Hepatocytes Dog,√
same,Metabolite Hydrolysis (SN-38) + glucuronidation,[3]; Hepatocytes Dog,—
same,Metabolite Hydrolysis (SDC-TRAP-0062) + glucuronidation,[3]; Hepatocytes Dog,—
same,Metabolite Hydrolysis (SDC-TRAP-0063),[3]; Hepatocytes Dog,—
same,Metabolite Hydrolysis (SDC-TRAP-0063) + glucuronidation,[3]; Hepatocytes Dog,—
same,Metabolite Glucuronidation,[3]; Hepatocytes Dog,—
same,Metabolite Hydrolysis (SN-38),[3]; Hepatocytes Human,√
same,Metabolite Hydrolysis (SDC-TRAP-0062),[3]; Hepatocytes Human,√
same,Metabolite Hydrolysis (SN-38) + glucuronidation,[3]; Hepatocytes Human,—
same,Metabolite Hydrolysis (SDC-TRAP-0062) + glucuronidation,[3]; Hepatocytes Human,—
same,Metabolite Hydrolysis (SDC-TRAP-0063),[3]; Hepatocytes Human,√
same,Metabolite Hydrolysis (SDC-TRAP-0063) + glucuronidation,[3]; Hepatocytes Human,√
same,Metabolite Glucuronidation,[3]; Hepatocytes Human,—
same,Metabolite Hydrolysis (SN-38),[3]; Hepatocytes Monkey,—
same,Metabolite Hydrolysis (SDC-TRAP-0062),[3]; Hepatocytes Monkey,—
same,Metabolite Hydrolysis (SN-38) + glucuronidation,[3]; Hepatocytes Monkey,√
same,Metabolite Hydrolysis (SDC-TRAP-0062) + glucuronidation,[3]; Hepatocytes Monkey,√
same,Metabolite Hydrolysis (SDC-TRAP-0063),[3]; Hepatocytes Monkey,—
same,Metabolite Hydrolysis (SDC-TRAP-0063) + glucuronidation,[3]; Hepatocytes Monkey,√
same,Metabolite Glucuronidation,[3]; Hepatocytes Monkey,√
same,Metabolite Hydrolysis (SN-38),[3]; Hepatocytes Mouse,√
same,Metabolite Hydrolysis (SDC-TRAP-0062),[3]; Hepatocytes Mouse,√
same,Metabolite Hydrolysis (SN-38) + glucuronidation,[3]; Hepatocytes Mouse,—
same,Metabolite Hydrolysis (SDC-TRAP-0062) + glucuronidation,[3]; Hepatocytes Mouse,—
same,Metabolite Hydrolysis (SDC-TRAP-0063),[3]; Hepatocytes Mouse,—
same,Metabolite Hydrolysis (SDC-TRAP-0063) + glucuronidation,[3]; Hepatocytes Mouse,√
same,Metabolite Glucuronidation,[3]; Hepatocytes Mouse,√
same,Metabolite Hydrolysis (SN-38),[3]; Hepatocytes Rat,—
same,Metabolite Hydrolysis (SDC-TRAP-0062),[3]; Hepatocytes Rat,√
same,Metabolite Hydrolysis (SN-38) + glucuronidation,[3]; Hepatocytes Rat,—
same,Metabolite Hydrolysis (SDC-TRAP-0062) + glucuronidation,[3]; Hepatocytes Rat,—
same,Metabolite Hydrolysis (SDC-TRAP-0063),[3]; Hepatocytes Rat,—
same,Metabolite Hydrolysis (SDC-TRAP-0063) + glucuronidation,[3]; Hepatocytes Rat,√
same,Metabolite Glucuronidation,[3]; Hepatocytes Rat,—
